# Measured values reported in ChEMBL document CHEMBL1201862, “PubChem BioAssay data set” (2004).
#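 Following 48 hours of exposure in 96-well plates, responses at five concentrations were used to interpolate endpoints linearly. GI50 = concentration required for 50% inhibition of growth.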 Calls of active or inactive are those of the source. Rule as the data show it: active = GI50 up to about 1.1 µM and inactive = higher.
# Experiments:
# Experiment in all cases: inhibition of tumour cell growth, NCI panel, 48 h
# ACHN = tested on: ACHN
# HL-60 = tested on: HL-60
# NCI/ADR-RES = tested on: NCI/ADR-RES
# SF-268 = tested on: SF-268
# HCT-15 = tested on: HCT-15
# HCC 2998 = tested on: HCC 2998
# MDA-MB-231 = tested on: MDA-MB-231
# PC-3 = tested on: PC-3
# DU-145 = tested on: DU-145
# 786-0 = tested on: 786-0
# Hs-578T = tested on: Hs-578T
# MDA-N = tested on: MDA-N
# SN12C = tested on: SN12C
# SNB-19 = tested on: SNB-19
# SK-OV-3 = tested on: SK-OV-3
# EKVX = tested on: EKVX
# A549 = tested on: A549
# OVCAR-5 = tested on: OVCAR-5
# COLO 205 = tested on: COLO 205
# U-251 = tested on: U-251
Compound,GI50 (ACHN),GI50 (HL-60),GI50 (NCI/ADR-RES),GI50 (SF-268),GI50 (HCT-15) [µM],GI50 (HCC 2998),GI50 (MDA-MB-231),GI50 (PC-3),GI50 (DU-145),GI50 (786-0),GI50 (Hs-578T),GI50 (MDA-N),GI50 (SN12C),GI50 (SNB-19),GI50 (SK-OV-3),GI50 (EKVX),GI50 (A549),GI50 (OVCAR-5),GI50 (COLO 205),GI50 (U-251)
N#Cc1c(-c2ccc(Cl)cc2)cc(-c2nc3ccccc3[nH]2)nc1N,11.1 µM (inactive),11.2 µM (inactive),15 µM (inactive),7.98 µM (inactive),10.9,4.02 µM (inactive),12.2 µM (inactive),11 µM (inactive),6.98 µM (inactive),11.3 µM (inactive),16.5 µM (inactive),6.49 µM (inactive),13.4 µM (inactive),12.1 µM (inactive),19.5 µM (inactive),11 µM (inactive),5.92 µM (inactive),19.5 µM (inactive),4.3 µM (inactive),
COc1cc([N+](=O)[O-])ccc1NC1=CC(=O)CCC1,> 100 µM (inactive),> 100 µM (inactive),> 100 µM (inactive),> 100 µM (inactive),> 100,> 100 µM (inactive),> 100 µM (inactive),> 100 µM (inactive),> 100 µM (inactive),> 100 µM (inactive),> 100 µM (inactive),> 100 µM (inactive),> 100 µM (inactive),> 100 µM (inactive),> 100 µM (inactive),> 100 µM (inactive),> 100 µM (inactive),> 100 µM (inactive),> 100 µM (inactive),> 100 µM (inactive)
O=[N+]([O-])c1ccc(-c2cn(-c3ccc(Cl)cc3)cn2)cc1,31.6 µM (inactive),> 100 µM (inactive),36.6 µM (inactive),14.2 µM (inactive),> 100,> 100 µM (inactive),27.2 µM (inactive),> 100 µM (inactive),> 100 µM (inactive),16.6 µM (inactive),41.6 µM (inactive),> 100 µM (inactive),41.3 µM (inactive),67 µM (inactive),11.6 µM (inactive),32.7 µM (inactive),27.4 µM (inactive),> 100 µM (inactive),> 100 µM (inactive),31.8 µM (inactive)
O=C1CCc2ccc3c(c21)CC1(Cc2ccccc2C1)C3,5.27 µM (inactive),2.11 µM (inactive),5.5 µM (inactive),12.7 µM (inactive),4.67,14.4 µM (inactive),4.45 µM (inactive),8.73 µM (inactive),13 µM (inactive),6.58 µM (inactive),25.8 µM (inactive),2.69 µM (inactive),4.8 µM (inactive),23.1 µM (inactive),41.4 µM (inactive),,7.78 µM (inactive),11.3 µM (inactive),16.2 µM (inactive),8.05 µM (inactive)
CC(=O)c1ccc(NCN2C(=O)c3ccccc3C2=O)cc1,> 100 µM (inactive),36.9 µM (inactive),> 100 µM (inactive),> 100 µM (inactive),> 100,> 100 µM (inactive),> 100 µM (inactive),> 100 µM (inactive),> 100 µM (inactive),> 100 µM (inactive),> 100 µM (inactive),> 100 µM (inactive),> 100 µM (inactive),> 100 µM (inactive),> 100 µM (inactive),> 100 µM (inactive),> 100 µM (inactive),> 100 µM (inactive),> 100 µM (inactive),> 100 µM (inactive)
CCCCC[C@H]1CCCCCCCCCC(=O)OC2C(O[C@@H]3OC(C)[C@H](OC(=O)[C@@H](C)CC)C(O[C@@H]4OC(C)[C@H](O)C(O)[C@@H]4O)[C@@H]3OC(=O)[C@H](C)CC)[C@H](OC3C(O)[C@@H](O)C(C)O[C@H]3O1)OC(CO)[C@H]2O (stereo partly drawn),> 10 µM (inactive),19 µM (inactive),18.8 µM (inactive),16.3 µM (inactive),16.7,17.2 µM (inactive),16.8 µM (inactive),16.2 µM (inactive),16.2 µM (inactive),17.4 µM (inactive),16.4 µM (inactive),17.4 µM (inactive),17.5 µM (inactive),16.1 µM (inactive),15.6 µM (inactive),19.2 µM (inactive),16.8 µM (inactive),16.7 µM (inactive),11.9 µM (inactive),17.9 µM (inactive)
O=C1CC(Sc2nc3ccc(I)cc3c(=O)n2Cc2ccccc2)C(=O)NN1 (stereo not drawn),16.6 µM (inactive),20 µM (inactive),20.2 µM (inactive),15.9 µM (inactive),15.5,17.6 µM (inactive),15.6 µM (inactive),17 µM (inactive),20 µM (inactive),15.1 µM (inactive),18.5 µM (inactive),18 µM (inactive),14.5 µM (inactive),19.3 µM (inactive),16 µM (inactive),15.8 µM (inactive),28.4 µM (inactive),17.9 µM (inactive),19.1 µM (inactive),15.9 µM (inactive)
